Laboratory results published in US10980851B2, “Topical skincare compositions comprising Centella asiatica selected triterpenes” (The Procter & Gamble Company, priority 2018, dated 2021).

Tested on: gene expression in tert keratinocytes
Assay: Signature free connectivity mapping (C-map) similarity to CAST
Details: Concentration Tested 0.01% (wt. %); Fisher Discriminant Analysis
Excerpt: Signature Free Method of Querying Perturbagens Using Connectivity Mapping to Test Similarity Among Different Varieties of Perturbagens
The signature-free query method describes methodologies for identifying gene expression similarities among different perturbagens, such as cosmetic actives and/or natural extracts in an already existing tert connectivity map database. “Connectivity map” and “C-map” refer broadly to devices, systems, articles of manufacture, and methodologies for identifying relationships between cellular phenotypes or cosmetic conditions, gene expression, and perturbagens, such as cosmetic actives. […]
The tert C-map database consists of normalized gene expression data of approximately 3200 perturbagens. […] For each individual perturbagen, the output of the normalization includes an expression value for each probe analyzed in the gene expression profiling experiment. […]
The data matrix is analyzed using multivariate statistical analysis. Though described herein with reference to regularized Fisher Discriminant Analysis using a kernel version of the projection matrix, those of ordinary skill in the art will readily appreciate that other forms of multivariate statistical analysis may be employed in other embodiments. […]

Molecule	Similarity (distance) Score from CAST
C[C@H]1[C@H](C)CC[C@]2(C(=O)O)CC[C@]3(C)C(=CC[C@@H]4[C@@]5(C)C[C@@H](O)[C@H](O)[C@@](C)(CO)[C@@H]5[C@H](O)C[C@]43C)[C@H]12 [Madecassic acid]	0.770
Madecassoside	−0.031
